The results in this text go back to patent US12077503B2, “Substituted cyclic amides and their use as herbicides” (FMC CORPORATION, priority 2015, dated 2024).

What all share (format): in vivo
Assay [1] relates to Kochia (Kochia scoparia). The experiment in a line: Test A preemergence. The following applies: Bassia scoparia, pre-emergence, 240 h. The procedure, abridged: (§1)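 Seeded soil received test chemicals as a preemergence directed spray, and seedlings at one to two leaves, 2–10 cm tall, received them postemergence, in a non-phytotoxic, surfactant-containing solvent mixture. Pots were held in a greenhouse for approximately 10 d, then rated for injury from 0, no effect, to 100, complete control.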

Assay [2] has as its system barnyardgrass (Echinochloa crus-galli). The experiment in a line: Test A preemergence. The following applies: Echinochloa crus-galli, pre-emergence, 240 h. Summed up: as §1
Assay [3] relates to giant foxtail (Setaria faberii). The assay can be described thus: Test A preemergence. The following applies: Setaria faberi, pre-emergence, 240 h. Summed up:
as §1

For assay [4], the system named is pigweed (Amaranthus retroflexus). The experiment in a line: Test A preemergence. The following applies: Amaranthus retroflexus, pre-emergence, 240 h.
Assay [5] relates to ragweed (common ragweed, Ambrosia elatior). The experiment in a line: Test A preemergence. Conditions: Ambrosia artemisiifolia, pre-emergence, 240 h. Summed up:
as §1

Assay [6] has as its system ryegrass, Italian (Italian ryegrass, Lolium multiflorum). The assay can be described thus: Test A preemergence. The following applies: Lolium multiflorum, pre-emergence, 240 h. Summed up:
as §1

Assay [7] relates to Galium (catchweed bedstraw, Galium aparine). The experiment in a line: Test A postemergence. The following applies: Galium, post-emergence, 240 h, 125 g ai/ha, postemergence, visual injury rating after approximately 10 d; read-out: Galium plant response rating (0 to 100 scale, 0 no effect, 100 complete control). The procedure, abridged:
as §1

The test system of assay [8] is Kochia (Kochia scoparia). The experiment in a line: Test A postemergence. The following applies: Bassia scoparia, post-emergence, 240 h, 125 g ai/ha, postemergence, visual injury rating after approximately 10 d; read-out: Kochia plant response rating (0 to 100 scale, 0 no effect, 100 complete control). The procedure, abridged:
as §1

The subject of assay [9] is barnyardgrass (Echinochloa crus-galli). The assay can be described thus: Test A postemergence. The following applies: Echinochloa crus-galli, post-emergence, 240 h, 125 g ai/ha, postemergence, visual injury rating after approximately 10 d; read-out: Barnyardgrass plant response rating (0 to 100 scale, 0 no effect, 100 complete control). The procedure, abridged:
as §1

For assay [10], the system named is corn (Zea mays). The assay can be described thus: Test A postemergence. Conditions: Zea mays, post-emergence, 240 h, 125 g ai/ha, postemergence, visual injury rating after approximately 10 d; read-out: Corn plant response rating (0 to 100 scale, 0 no effect, 100 complete control). The procedure, abridged: as §1
For assay [11], the system named is giant foxtail (Setaria faberii). The experiment in a line: Test A postemergence. Conditions: Setaria faberi, post-emergence, 240 h, 125 g ai/ha, postemergence, visual injury rating after approximately 10 d; read-out: Foxtail, Giant plant response rating (0 to 100 scale, 0 no effect, 100 complete control). The procedure, abridged:
as §1

In assay [12] the test system is pigweed (Amaranthus retroflexus). The assay can be described thus: Test A postemergence. Conditions: Amaranthus retroflexus, post-emergence, 240 h, 125 g ai/ha, postemergence, visual injury rating after approximately 10 d; read-out: Pigweed plant response rating (0 to 100 scale, 0 no effect, 100 complete control). Summed up:
as §1

The test system of assay [13] is ragweed (common ragweed, Ambrosia elatior). The assay can be described thus: Test A postemergence. The following applies: Ambrosia artemisiifolia, post-emergence, 240 h, 125 g ai/ha, postemergence, visual injury rating after approximately 10 d; read-out: Ragweed plant response rating (0 to 100 scale, 0 no effect, 100 complete control). Summed up: as §1
In assay [14] the test system is ryegrass, Italian (Italian ryegrass, Lolium multiflorum). The experiment in a line: Test A postemergence. The following applies: Lolium multiflorum, post-emergence, 240 h, 125 g ai/ha, postemergence, visual injury rating after approximately 10 d; read-out: Ryegrass, Italian plant response rating (0 to 100 scale, 0 no effect, 100 complete control). The procedure, abridged:
as §1

For assay [15], the system named is wheat (Triticum aestivum). The assay can be described thus: Test A postemergence. Conditions: Triticum aestivum, post-emergence, 240 h, 125 g ai/ha, postemergence, visual injury rating after approximately 10 d; read-out: Wheat plant response rating (0 to 100 scale, 0 no effect, 100 complete control). The procedure, abridged:
as §1

On to `CN1C[C@H](c2cc(F)c(C(F)(F)F)c(F)c2)[C@@H](C(=O)Nc2ccc(F)cc2F)C1=O` [Compound 901], for which the pest or weed control at 125 g/ha in assay [1] (125 g ai/ha, preemergence, 0 to 100 scale where 0 is no effect and 100 is complete control, read-out: Kochia plant response rating) was found to be 80%; in assay [2] (125 g ai/ha, preemergence, 0 to 100 scale where 0 is no effect and 100 is complete control, read-out: Barnyardgrass plant response rating) it was 90%; in assay [3] (125 g ai/ha, preemergence, 0 to 100 scale where 0 is no effect and 100 is complete control, read-out: Foxtail, Giant plant response rating) it was 90%; in [4] (125 g ai/ha, preemergence, 0 to 100 scale where 0 is no effect and 100 is complete control, read-out: Pigweed plant response rating), 30%; in [5] (125 g ai/ha, preemergence, 0 to 100 scale where 0 is no effect and 100 is complete control, read-out: Ragweed plant response rating) it was 0%; in assay [6] (125 g ai/ha, preemergence, 0 to 100 scale where 0 is no effect and 100 is complete control, read-out: Ryegrass, Italian plant response rating), 20%. Also, the pest or weed control at 125 g/ha in assay [7] came to 0%; in [8], 30%; in assay [9], 60%; in assay [11] it was 90%; in [12], 0%; in assay [13], 0%. Also, in assay [14], the pest or weed control at 125 g/ha worked out at 0%. Moreover, the pest or weed control at 500 g/ha in assay [1] (500 g ai/ha, Preemergence, visual injury vs untreated controls after approximately 10 d, read-out: Kochia plant response rating (0 to 100 scale where 0 is no effect and 100 is complete control)) was 80%; in assay [2] (500 g ai/ha, Preemergence, visual injury vs untreated controls after approximately 10 d, read-out: Barnyardgrass plant response rating (0 to 100 scale where 0 is no effect and 100 is complete control)) it was 90%; in assay [3] (500 g ai/ha, Preemergence, visual injury vs untreated controls after approximately 10 d, read-out: Foxtail, Giant plant response rating (0 to 100 scale where 0 is no effect and 100 is complete control)), 90%; in assay [4] (500 g ai/ha, Preemergence, visual injury vs untreated controls after approximately 10 d, read-out: Pigweed plant response rating (0 to 100 scale where 0 is no effect and 100 is complete control)), 60%; in [5] (500 g ai/ha, Preemergence, visual injury vs untreated controls after approximately 10 d, read-out: Ragweed plant response rating (0 to 100 scale where 0 is no effect and 100 is complete control)), 0%; in [6] (500 g ai/ha, Preemergence, visual injury vs untreated controls after approximately 10 d, read-out: Ryegrass, Italian plant response rating (0 to 100 scale where 0 is no effect and 100 is complete control)), 50%. In addition, the results for the plant injury at 125 g/ha in assay [10] and in [15] were 40% and 20%, respectively.
